Source: ChEMBL document CHEMBL3885881, “DrugMatrix”

Species on record: Rattus norvegicus
Experiment: DrugMatrix - Regimen: Daily Repeat
Type: toxicity, organism-based, Sprague-Dawley
Design: regimen Daily Repeat, gender Male, age 6-8 weeks
Settings: in vivo, po, 100 mg/kg, route oral GAVAGE, dose level High, vehicle .5 % CMC; for ABSOLUTE BASOPHIL / ABSOLUTE EOSINOPHIL / ABSOLUTE LYMPHOCYTE / ABSOLUTE MONOCYTE / ABSOLUTE SEGMENTED NEUTROPHIL / BASOPHIL / EOSINOPHIL / ERYTHROCYTE COUNT / HEMATOCRIT / HEMOGLOBIN / LEUKOCYTE COUNT / LYMPHOCYTE / MEAN CORPUSCULAR HEMOGLOBIN / MEAN CORPUSCULAR HEMOGLOBIN CONCENTRATION / MEAN CORPUSCULAR VOLUME / MONOCYTE / NEUTROPHIL / NUCLEATED RED BLOOD CELLS / PLATELET COUNT: tissue Blood; for ALANINE AMINOTRANSFERASE / ALBUMIN / ALKALINE PHOSPHATASE / ASPARTATE AMINOTRANSFERASE / BLOOD UREA NITROGEN / CARBON DIOXIDE / CHLORIDE / CHOLESTEROL / CREATINE PHOSPHOKINASE / CREATININE / GLUCOSE / LACTATE DEHYDROGENASE / LIPASE / PHOSPHORUS / POTASSIUM / SODIUM / TOTAL BILIRUBIN / TOTAL PROTEIN / URIC ACID: tissue Plasma

CN1[C@@H]2CC[C@H]1C[C@@H](OC(=O)c1c[nH]c3ccccc13)C2 [TROPISETRON]
ABSOLUTE BASOPHIL (72 h, time 3 day): 0 CELLS/uL | ABSOLUTE EOSINOPHIL (72 h, time 3 day): 0 CELLS/uL | ABSOLUTE LYMPHOCYTE (72 h, time 3 day): 8279 CELLS/uL | ABSOLUTE MONOCYTE (72 h, time 3 day): 180 CELLS/uL | ABSOLUTE SEGMENTED NEUTROPHIL (72 h, time 3 day): 707.67 CELLS/uL | BASOPHIL (72 h, time 3 day): 0% | EOSINOPHIL (72 h, time 3 day): 0% | ERYTHROCYTE COUNT (72 h, time 3 day): 5.38 x10E6/uL | HEMATOCRIT (72 h, time 3 day): 33.5% | HEMOGLOBIN (72 h, time 3 day): 12.6 G/DL | LEUKOCYTE COUNT (72 h, time 3 day): 9.17 x10E3/uL | LYMPHOCYTE (72 h, time 3 day): 90.33% | MEAN CORPUSCULAR HEMOGLOBIN (72 h, time 3 day): 23.47 pg | MEAN CORPUSCULAR HEMOGLOBIN CONCENTRATION (72 h, time 3 day): 37.6 G/DL | MEAN CORPUSCULAR VOLUME (72 h, time 3 day): 62.3 fL | MONOCYTE (72 h, time 3 day): 2% | NEUTROPHIL (72 h, time 3 day): 7.67% | NUCLEATED RED BLOOD CELLS (72 h, time 3 day): 0 /100WBC | PLATELET COUNT (72 h, time 3 day): 1392.33 x10E3/uL | ALANINE AMINOTRANSFERASE (72 h, time 3 day): 63.67 u/L | ALBUMIN (72 h, time 3 day): 4.3 G/DL | ALKALINE PHOSPHATASE (72 h, time 3 day): 429.67 u/L | ASPARTATE AMINOTRANSFERASE (72 h, time 3 day): 69.33 u/L | BLOOD UREA NITROGEN (72 h, time 3 day): 14.33 mg/dL | CARBON DIOXIDE (72 h, time 3 day): 27.67 mmol/L | CHLORIDE (72 h, time 3 day): 105.67 MEQ/L | CHOLESTEROL (72 h, time 3 day): 54.33 mg/dL | CREATINE PHOSPHOKINASE (72 h, time 3 day): 189.33 u/L | CREATININE (72 h, time 3 day): 0.3 mg/dL | GLUCOSE (72 h, time 3 day): 155.33 mg/dL | LACTATE DEHYDROGENASE (72 h, time 3 day): 122.67 u/L | LIPASE (72 h, time 3 day): 8.33 u/L | PHOSPHORUS (72 h, time 3 day): 13.03 mg/dL | POTASSIUM (72 h, time 3 day): 5.65 MEQ/L | SODIUM (72 h, time 3 day): 149.97 MEQ/L | TOTAL BILIRUBIN (72 h, time 3 day): 0.2 mg/dL | TOTAL PROTEIN (72 h, time 3 day): 5.87 G/DL | URIC ACID (72 h, time 3 day): 1.2 mg/dL | ABSOLUTE BASOPHIL (120 h, time 5 day): 0 CELLS/uL | ABSOLUTE EOSINOPHIL (120 h, time 5 day): 100.67 CELLS/uL | ABSOLUTE LYMPHOCYTE (120 h, time 5 day): 14254 CELLS/uL | ABSOLUTE MONOCYTE (120 h, time 5 day): 107 CELLS/uL | ABSOLUTE SEGMENTED NEUTROPHIL (120 h, time 5 day): 1271.67 CELLS/uL | BASOPHIL (120 h, time 5 day): 0% | EOSINOPHIL (120 h, time 5 day): 0.67% | ERYTHROCYTE COUNT (120 h, time 5 day): 5.79 x10E6/uL | HEMATOCRIT (120 h, time 5 day): 36.33% | HEMOGLOBIN (120 h, time 5 day): 13.6 G/DL | LEUKOCYTE COUNT (120 h, time 5 day): 15.73 x10E3/uL | LYMPHOCYTE (120 h, time 5 day): 90.67% | MEAN CORPUSCULAR HEMOGLOBIN (120 h, time 5 day): 23.5 pg | MEAN CORPUSCULAR HEMOGLOBIN CONCENTRATION (120 h, time 5 day): 37.43 G/DL | MEAN CORPUSCULAR VOLUME (120 h, time 5 day): 62.73 fL | MONOCYTE (120 h, time 5 day): 0.67% | NEUTROPHIL (120 h, time 5 day): 8% | NUCLEATED RED BLOOD CELLS (120 h, time 5 day): 0 /100WBC | PLATELET COUNT (120 h, time 5 day): 1276.33 x10E3/uL | ALANINE AMINOTRANSFERASE (120 h, time 5 day): 63.67 u/L | ALBUMIN (120 h, time 5 day): 4.2 G/DL | ALKALINE PHOSPHATASE (120 h, time 5 day): 501 u/L | ASPARTATE AMINOTRANSFERASE (120 h, time 5 day): 81.67 u/L | BLOOD UREA NITROGEN (120 h, time 5 day): 16 mg/dL | CARBON DIOXIDE (120 h, time 5 day): 26.33 mmol/L | CHLORIDE (120 h, time 5 day): 105.33 MEQ/L | CHOLESTEROL (120 h, time 5 day): 59.33 mg/dL | CREATINE PHOSPHOKINASE (120 h, time 5 day): 219 u/L | CREATININE (120 h, time 5 day): 0.25 mg/dL | GLUCOSE (120 h, time 5 day): 178 mg/dL | LACTATE DEHYDROGENASE (120 h, time 5 day): 91 u/L | LIPASE (120 h, time 5 day): 9 u/L | PHOSPHORUS (120 h, time 5 day): 15.37 mg/dL | POTASSIUM (120 h, time 5 day): 5.6 MEQ/L | SODIUM (120 h, time 5 day): 146.8 MEQ/L | TOTAL BILIRUBIN (120 h, time 5 day): 0.17 mg/dL | TOTAL PROTEIN (120 h, time 5 day): 6.13 G/DL | URIC ACID (120 h, time 5 day): 2.13 mg/dL
